Reference: US20240115709A1, “ASSEMBLY OF ORGANIC SUPRAMOLECULAR VESSELS FOR CONTROLLED DRUG RELEASE” (NOBLE PANACEA LABS, INC., priority 2021, published 2024)
Converted amounts (≈) assume the structure as drawn. Where two headings read alike, the source gives them in different places. Each block holds one molecule with its values, some of them ahead of it.

Assays:
[1] = cited from earlier work
[2] = Release/diffusion using Franz diffusion cell with artificial membrane; type: in vitro ADME; details: control, OA only, within 4 hours
[3] = Solubility in water and solvents; type: physicochemical
[4] = 20° C., reported value; cited from earlier work
[5] = Thermogravimetric analysis (thermal stability); type: physicochemical; details: 250-380° C., argon atmosphere
Procedure: The thermal stability of the γ-CD. γ-CDP and γ-CDP has been investigated (FIG. 4) using thermogravimetric analysis which was carried out in argon atmosphere. […] This weight loss may be associated to the decomposition of the ester functional groups attaching the aliphatic chains to the CD.
Thermogravimetric (TGA, Netzsch) was carried out from room temperature to 400° C. at a ramping rate of 5° C. min−1 under an Ar flow.

- diffusion through the membrane [2]: 92%
Structure (SMILES): CN(C)c1ccc2cc3ccc(N(C)C)cc3nc2c1.Cl [Orange Acridine hydrochloride (OA), Orange Acridine hydrochloride]
- solubility in water ([1]; 23° C.): 6000 µg/mL

Structure (SMILES): O=C1O[C@H]([C@@H](O)CO)C([O-])=C1OP(=O)([O-])[O-].O=C1O[C@H]([C@@H](O)CO)C([O-])=C1OP(=O)([O-])[O-].[Mg+2].[Mg+2].[Mg+2] [magnesium ascorbyl phosphate (MgAsc), magnesium ascorbyl phosphate]
- solubility in water [1]: 8100 µg/mL

- solubility in EtOAc upon addition of the CDOs [3]: increases significantly
- solubility in EtOAc ([3]; alone): low solubility
Structure (SMILES): NC(=O)c1cccnc1 [niacinamide]

Structure (SMILES): CCCCCCCC/C=C\CCCCCCCC(=O)O [oleic acid]
- viscosity [4]: 0.0348 Pa·s

Structure (SMILES): Oc1ccc(C=Cc2cc(O)cc(O)c2)cc1 [resveratrol]
- solubility in water [1]: 50 µg/mL (≈ 219 µM)

Structure (SMILES): Cc1c(C)c2c(c(C)c1O)CC[C@@](C)(CCC[C@H](C)CCC[C@H](C)CCCC(C)C)O2 [α-tocopherol]
- viscosity [4]: 4.6 Pa·s

- weight loss [5]: 60%
Structure (SMILES): OC[C@H]1O[C@@H]2O[C@H]3[C@H](O)[C@@H](O)[C@@H](O[C@H]4[C@H](O)[C@@H](O)[C@@H](O[C@H]5[C@H](O)[C@@H](O)[C@@H](O[C@H]6[C@H](O)[C@@H](O)[C@@H](O[C@H]7[C@H](O)[C@@H](O)[C@@H](O[C@H]8[C@H](O)[C@@H](O)[C@@H](O[C@H]9[C@H](O)[C@@H](O)[C@@H](O[C@H]1[C@H](O)[C@H]2O)O[C@@H]9CO)O[C@@H]8CO)O[C@@H]7CO)O[C@@H]6CO)O[C@@H]5CO)O[C@@H]4CO)O[C@@H]3CO [γ-CD, γ-Cyclodextrin]
